Read-outs that look alike come from different tables or passages of the source.
Tests used:
[1] = system: Pseudomonas aeruginosa (Pa); conditions: cited from earlier work
[2] = system: Streptococcus pneumonia (Sp); conditions: cited from earlier work; for Sp MIC90: Table 7; for SP MIC90: Table 6
Sa = conditions: Table 7; cited from earlier work
[3] = system: methicillin resistant Staphylococcus aureus (MRSA); conditions: cited from earlier work
[4] = system: P. aeruginosa strain PAM 1723; assay: Mouse lung infection efficacy model; conditions: Pseudomonas aeruginosa, PAM1723, in Mus musculus
Description: The inoculum is adjusted to ca. 5×10^6 CFU/ml by correlation of absorbance at 600 nm with predetermined plate counts. […] On day 5, mice are infected by an intratracheal instillation of 0.05 ml of inoculum while under isoflurane anesthesia (5% isoflurane in oxygen running at 4 L/min). […] Mice are sacrificed 1 and 4 hours after treatment, their lungs removed, homogenized and plated to determine colony counts.

[5] = Rat pharmacokinetic model (IV vs microspray aerosol, intratracheal); format: in vivo, rats; conditions: 10 mg/kg; for AUC / AUC(0-inf) / half-life: rat; for AUC: epithelial lining fluid (ELF); for AUC(0-inf) / half-life: serum; for half-life: read-out: Serum t1/2 (converted)
Description: […] Blood samples are taken at various times over 3 hours to determine the plasma pharmacokinetic parameters. […] The plasma and tissue concentrations are determined by an HPLC method and the data are then fit using WinNonlin.

physchem = conditions: for Initial Solution pH / Initial Solution Appearance: 10 mg/mL in sterile water; for Initial Solution Appearance: room temperature; for After pH Adjustment Appearance / After pH Adjustment pH / pH of final solution: 10 mg/mL; for After pH Adjustment Appearance / After pH Adjustment pH: titrated with 1N HCl; for solubility on titration with 1N HCl: pH 1.5; for solubility at 10 min: aqueous buffer, thermodynamic from solid
Description: A 2 to 20 mg sample of each antibiotic was weighed into sterile plastic tubes and brought up with a volume of sterile water to make a 10 mg/mL solution or suspension of the antibiotic. Samples were incubated for approximately 10 minutes at room temperature with occasional mixing, prior to further handling.
The insoluble solutions were titrated with 1N HCl to the point of visible solubility, and the pH of the solubilized solution determined.
After the pH adjustment, and following a further 10 minute incubation period with occasional mixing, the final appearance of the solutions was determined, just prior to the aerosol tolerability and taste test.

MSSA = conditions: Table 6; cited from earlier work
[6] = in vivo
Description: In the second test, the tolerability and taste of a small aerosol sample from a 0.5 ml aliquot of the test formulation was determined in a single healthy human volunteer, following nebulization in a PARI eFlow nebulizer (Table 12).
The tolerability and taste of the drug during a very brief administration period and for a period of 10 minutes post administration were monitored. Tolerability parameters were of the following types: (i) cough, cough sensation, or sneezing (ii) irritation, burning or tightness of throat, (ii) irritation or runniness in nasal passages or eyes, (iii) irritation, burning or tightness of the lungs or shortness of breadth, and (iv) dizziness, headache, nausea or other systemic effects.

[7] = 1 h, read-out: DeltaLOG CPU 1 hr, route IT, dose 25 mg/kg, 1 hr post-drug administration
[8] = 4 h, read-out: DeltaLOG CPU 4 hr, route IT, dose 25 mg/kg, 4 hr post-drug administration
[9] = ip, 1 h, read-out: DeltaLOG CPU 1 hr, route IP, dose 25 mg/kg, 1 hr post-drug administration
[10] = ip, 4 h, read-out: DeltaLOG CPU 4 hr, route IP, dose 25 mg/kg, 4 hr post-drug administration

## CNC1CCCN(c2c(F)cc3c(=O)c(C(=O)O)cn(C4CC4)c3c2OC)C1 (stereo not shown) [Balofloxacin]
[1]; Table 7
  Pa MIC90: 32 µg/mL
[2]
  Sp MIC90: 0.5 µg/mL
Sa
  Sa MIC90: 0.25 µg/mL
[3]; Table 7
  MRSA MIC90: 8 µg/mL

## NC1CCN(c2c(F)cc3c(=O)c(C(=O)O)cn(C4CC4)c3c2Cl)C1 (stereo not shown) [Clinafloxacin]
[1]; Table 7
  Pa MIC90: 4 µg/mL
[4]; 1 h, read-out: DeltaLOG CPU 1 hr, route IT, dose 10 mg/kg, 1 hr post-drug administration
  log reduction at 10 mg/kg: 2.71
[4]; [7]
  log reduction at 25 mg/kg: 2.86
[4]; 4 h, read-out: DeltaLOG CPU 4 hr, route IT, dose 10 mg/kg, 4 hr post-drug administration
  log reduction at 10 mg/kg: 2.4
[4]; [8]
  log reduction at 25 mg/kg: 2.47
[4]; ip, 1 h, read-out: DeltaLOG CPU 1 hr, route IP, dose 10 mg/kg, 1 hr post-drug administration
  log reduction at 10 mg/kg: 0.96
[4]; [9]
  log reduction at 25 mg/kg: 1.32
[4]; ip, 4 h, read-out: DeltaLOG CPU 4 hr, route IP, dose 10 mg/kg, 4 hr post-drug administration
  log reduction at 10 mg/kg: 1.39
[4]; [10]
  log reduction at 25 mg/kg: 1.33
[2]
  Sp MIC90: 0.06 µg/mL
Sa
  Sa MIC90: 0.06 µg/mL
[3]; Table 7
  MRSA MIC90: 2 µg/mL
[5]; inhaled or intranasal, IT
  AUC: 30.8 µg·h/mL
  AUC(0-inf): 3.2 µg·h/mL
  half-life: 44.4 min

## CN1C[C@@H]2C[C@H]1CN2c1cc2c(cc1F)c(=O)c(C(=O)O)cn2C1CC1 [Danofloxacin]
[1]; Table 7
  Pa MIC90: >16 µg/mL
Sa
  Sa MIC90: 0.125 µg/mL

## CN1CCN(c2cc3c(cc2F)c(=O)c(C(=O)O)cn3-c2ccc(F)cc2)CC1 [Difloxacin]
[1]; Table 7
  Pa MIC90: 32 µg/mL
[2]
  Sp MIC90: 2 µg/mL
Sa
  Sa MIC90: 0.5 µg/mL

## CCn1cc(C(=O)O)c(=O)c2cc(F)c(N3CCNCC3)nc21 [Enoxacin]
[1]; Table 7
  Pa MIC90: >32 µg/mL
[2]
  Sp MIC90: 16 µg/mL
Sa
  Sa MIC90: 1 µg/mL
[3]; Table 7
  MRSA MIC90: >4 µg/mL

## CCN1CCN(c2cc3c(cc2F)c(=O)c(C(=O)O)cn3C2CC2)CC1 [Enrofloxacin]
[1]; Table 7
  Pa MIC90: >16 µg/mL
[2]
  Sp MIC90: 1 µg/mL
Sa
  Sa MIC90: 0.125 µg/mL
[3]; Table 7
  MRSA MIC90: 8 µg/mL

## CN1CCN(c2c(F)cc3c(=O)c(C(=O)O)cn(CCF)c3c2F)CC1 [Fleroxacin]
[1]; Table 7
  Pa MIC90: 32 µg/mL
[2]
  Sp MIC90: 8 µg/mL
Sa
  Sa MIC90: 1 µg/mL
[3]; Table 7
  MRSA MIC90: >4 µg/mL

## C[C@H]1NCc2cc(-c3ccc4c(=O)c(C(=O)O)cn(C5CC5)c4c3OC(F)F)ccc21 [Garenoxacin]
[1]; Table 7
  Pa MIC90: >32 µg/mL
[2]
  Sp MIC90: 0.06 µg/mL
Sa
  Sa MIC90: 0.06 µg/mL
[3]; Table 7
  MRSA MIC90: 8 µg/mL

## Cc1c(F)c(N2CCNC(C)C2)cc2c1c(=O)c(C(=O)O)cn2C1CC1 (stereo not shown) [Grepafloxacin]
[1]; Table 7
  Pa MIC90: >32 µg/mL
[2]
  Sp MIC90: 0.5 µg/mL
Sa
  Sa MIC90: 0.125 µg/mL
[3]; Table 7
  MRSA MIC90: 32 µg/mL

## CN1CCN(c2c(F)cc3c(=O)c(C(=O)O)cn4c3c2OCN4C)CC1 [Marbofloxacin]
[1]; Table 6
  Pa MIC90: 8 µg/mL
[2]
  SP MIC90: 2 µg/mL
physchem
  Initial Solution pH: 6.5
  Initial Solution Appearance: white, very turbid, visible
  After pH Adjustment Appearance: White, turbid, visible
  After pH Adjustment pH: 1.5
  pH of final solution: 1.5
  solubility on titration with 1N HCl: solubility was not reached by pH 1.5
MSSA
  MSSA MIC90: 2 µg/mL

## COc1c(N2C[C@@H]3CCCN[C@@H]3C2)c(F)cc2c(=O)c(C(=O)O)cn(C3CC3)c12 [Moxifloxacin]
physchem
  solubility/pH characteristics: best solubility/pH characteristics
  solubility at 10 min: > 10000 µg/mL
[6]
  Aerosol Tolerability and Taste: moderate bitter unpleasant taste, some
  cough on aerosol exposure: associated with cough

## CCn1cc(C(=O)O)c(=O)c2cc(F)c(N3CCNCC3)cc21 [Norfloxacin]
[1]; Table 7
  Pa MIC90: 16 µg/mL
[2]
  Sp MIC90: 16 µg/mL
Sa
  Sa MIC90: 1 µg/mL
[3]; Table 7
  MRSA MIC90: >4 µg/mL
[5]; IT
  F, % from Lung vs. IV: 100%
[5]; inhaled or intranasal, IT
  AUC: 41.7 µg·h/mL
[5]; iv
  AUC: 3.27 µg·h/mL

## Cc1c(N2C[C@@H](N)C3(CC3)C2)c(F)c(N)c2c(=O)c(C(=O)O)cn(C3CC3)c12 [Olamufloxacin]
[1]; Table 7
  Pa MIC90: 16 µg/mL
[2]
  Sp MIC90: 0.06 µg/mL
Sa
  Sa MIC90: 1 µg/mL
[3]; Table 7
  MRSA MIC90: 2 µg/mL

## C[C@H]1COc2c(C3(N)CC3)c(F)cc3c(=O)c(C(=O)O)cn1c23 [Pazufloxacin]
[1]; Table 7
  Pa MIC90: >32 µg/mL
[2]
  Sp MIC90: 4 µg/mL
Sa
  Sa MIC90: 0.5 µg/mL
[3]; Table 7
  MRSA MIC90: >16 µg/mL

## CCn1cc(C(=O)O)c(=O)c2cc(F)c(N3CCN(C)CC3)cc21 [Pefloxacin]
[1]; Table 6
  Pa MIC90: >32 µg/mL
[2]
  SP MIC90: 32 µg/mL
[3]; Table 6
  MRSA MIC90: >32 µg/mL
MSSA
  MSSA MIC90: 2 µg/mL

## Cc1oc(=O)oc1CN1CCN(c2cc3c(cc2F)c(=O)c(C(=O)O)c2n3C(C)S2)CC1 (stereo not shown) [Prulifloxacin]
[1]; Table 7
  Pa MIC90: 16 µg/mL
[2]
  Sp MIC90: 1 µg/mL
Sa
  Sa MIC90: 0.25 µg/mL
[3]; Table 7
  MRSA MIC90: 32 µg/mL

## CN1CCN(c2c(F)cc3c(=O)c(C(=O)O)cn4c3c2SCC4)CC1 [Rufloxacin]
[1]; Table 7
  Pa MIC90: 32 µg/mL
[2]
  Sp MIC90: 32 µg/mL
Sa
  Sa MIC90: 2 µg/mL
[3]; Table 7
  MRSA MIC90: 64 µg/mL

## O=C(O)c1cn(-c2ccc(F)cc2)c2cc(N3CCNCC3)c(F)cc2c1=O [Sarafloxacin]
[1]; Table 7
  Pa MIC90: >16 µg/mL
Sa
  Sa MIC90: 0.25 µg/mL
[3]; Table 7
  MRSA MIC90: >16 µg/mL

## N[C@@H]1CN(c2c(F)cc3c(=O)c(C(=O)O)cn([C@@H]4C[C@@H]4F)c3c2Cl)CC12CC2 [Sitafloxacin]
[1]; Table 7
  Pa MIC90: 8 µg/mL
[2]
  Sp MIC90: 0.06 µg/mL
Sa
  Sa MIC90: 0.125 µg/mL
[3]; Table 7
  MRSA MIC90: 4 µg/mL

## C[C@@H]1CN(c2c(F)c(N)c3c(=O)c(C(=O)O)cn(C4CC4)c3c2F)C[C@H](C)N1 [Sparfloxacin]
[1]; Table 6
  Pa MIC90: 32 µg/mL
[4]; [7]
  log reduction at 25 mg/kg: 1.56
[4]; [8]
  log reduction at 25 mg/kg: 0.81
[4]; [9]
  log reduction at 25 mg/kg: 0.85
[4]; [10]
  log reduction at 25 mg/kg: -0.09
[2]
  SP MIC90: 0.5 µg/mL
physchem
  Initial Solution pH: 5.0
  Initial Solution Appearance: bright yellow, turbid, visible
  After pH Adjustment Appearance: bright yellow, densely
  After pH Adjustment pH: 1.5
  pH of final solution: 1.5
  solubility on titration with 1N HCl: solubility was not reached by pH 1.5
[3]; Table 6
  MRSA MIC90: 16 µg/mL
MSSA
  MSSA MIC90: 0.125 µg/mL

## NC[C@H]1O[C@H](O[C@H]2[C@H](O)[C@@H](O[C@H]3O[C@H](CO)[C@@H](O)[C@H](N)[C@H]3O)[C@H](N)C[C@@H]2N)[C@H](N)C[C@@H]1O [Tobramycin]
[4]; 1 h, read-out: DeltaLOG CPU 1 hr, route IT, dose 5 mg/kg, 1 hr post-drug administration
  log reduction at 5 mg/kg: 1.59
[4]; 4 h, read-out: DeltaLOG CPU 4 hr, route IT, dose 5 mg/kg, 4 hr post-drug administration
  log reduction at 5 mg/kg: 0.94
[4]; ip, 1 h, read-out: DeltaLOG CPU 1 hr, route IP, dose 5 mg/kg, 1 hr post-drug administration
  log reduction at 5 mg/kg: 0.7
[4]; ip, 4 h, read-out: DeltaLOG CPU 4 hr, route IP, dose 5 mg/kg, 4 hr post-drug administration
  log reduction at 5 mg/kg: -0.29
[5]; IT
  F, % from Lung vs. IV: 81%
[5]; inhaled or intranasal, IT
  AUC: 5150 µg·h/mL
  AUC(0-inf): 13.8 µg·h/mL
  half-life: 60 min
[5]; iv
  AUC: 27.6 µg·h/mL
  AUC(0-inf): 15.7 µg·h/mL
  half-life: 30 min

## N[C@@H]1[C@H]2CN(c3nc4c(cc3F)c(=O)c(C(=O)O)cn4-c3ccc(F)cc3F)C[C@@H]12 [Trovafloxacin]
[1]; Table 6
  Pa MIC90: >32 µg/mL
[2]
  SP MIC90: 0.25 µg/mL
physchem
  Initial Solution pH: 4.2
  Initial Solution Appearance: colorless, slightly cloudy, no
  solubility at 10 min: > 10000 µg/mL
  pH of final solution: 4.2
[3]; Table 6
  MRSA MIC90: 8 µg/mL
MSSA
  MSSA MIC90: 0.06 µg/mL
